# According to publication PMC2700090 (Virology Journal, 2009):
# Peptide text beside a SMILES is read from it.
# Biological target: neuraminidase (NA) (Influenza A virus (A/Hong Kong/1073/99(H9N2)), UniProt Q9ICY2)
# Test: biochemical
# Conditions: read-out: % inhibition at 1000 μM
smiles,measurement,value
"C[C@@H](O)[C@H](NC(=O)[C@H](CCCCN)NC(=O)[C@H](CO)NC(=O)[C@H](CCCNC(=N)N)NC(=O)[C@H](Cc1ccccc1)NC(=O)[C@H](CC(=O)O)NC(=O)[C@@H](N)CC(N)=O)C(=O)O [L-P1, NDFRSKT] (H-NDFRSKT-OH)",inhibition at 1000 µM,~35%
